Counter-ions that a name gives are not always drawn.
How the values were obtained:
human NTCP = target: T1, human NTCP (Homo sapiens, UniProt Q14973); format: cell-based; settings: for potency estimated from few doses: read-out: Estimated Ki for NTCP
T1 sequence (Q14973 1-349): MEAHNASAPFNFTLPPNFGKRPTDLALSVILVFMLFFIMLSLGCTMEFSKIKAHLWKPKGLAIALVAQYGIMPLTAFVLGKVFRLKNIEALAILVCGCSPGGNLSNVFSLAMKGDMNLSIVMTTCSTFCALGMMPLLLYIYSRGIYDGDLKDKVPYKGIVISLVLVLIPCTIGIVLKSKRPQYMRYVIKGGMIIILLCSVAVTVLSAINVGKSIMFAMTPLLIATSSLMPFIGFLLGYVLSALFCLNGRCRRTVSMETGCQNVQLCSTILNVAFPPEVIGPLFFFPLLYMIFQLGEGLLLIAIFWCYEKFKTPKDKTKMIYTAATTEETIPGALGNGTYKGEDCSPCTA

human ASBT = target: T2, human ASBT (Homo sapiens, UniProt Q12908); format: cell-based; settings: for potency estimated from few doses: read-out: Estimated Ki for ASBT; for fold more potent ASBT inhibition than NTCP inhibition: Ki values of Table 4 and 5; for taurocholate uptake into ASBT-MDCK cells, percent of control: single drug concentration, same as in NTCP screening (typically 100 μM); for ASBT inhibitor or non-inhibitor: inhibitor = Ki below 300 μM
T2 sequence (Q12908 1-348): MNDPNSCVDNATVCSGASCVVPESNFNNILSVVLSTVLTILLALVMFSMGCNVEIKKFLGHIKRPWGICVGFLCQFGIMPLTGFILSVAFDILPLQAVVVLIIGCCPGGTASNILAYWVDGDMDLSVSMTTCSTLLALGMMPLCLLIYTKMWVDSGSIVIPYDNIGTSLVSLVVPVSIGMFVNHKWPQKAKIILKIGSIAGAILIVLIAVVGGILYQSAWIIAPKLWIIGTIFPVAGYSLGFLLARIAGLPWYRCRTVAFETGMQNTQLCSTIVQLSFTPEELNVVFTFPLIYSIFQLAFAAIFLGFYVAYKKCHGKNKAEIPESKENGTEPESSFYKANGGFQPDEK

Compound | potency estimated from few doses (human NTCP) [µM] | potency estimated from few doses (human ASBT) [µM] | other results
C[C@H]1O[C@H](O[C@H]2[C@H](O)[C@@H](O)[C@@H](O[C@H]3[C@H](O)[C@@H](O)C(O)O[C@@H]3CO)O[C@@H]2CO)[C@H](O)[C@@H](O)[C@@H]1N[C@H]1C=C(CO)[C@@H](O)[C@H](O)[C@H]1O (stereo partly drawn) [Acarbose] | > 100 | 318 ± 169 | 
CC(C)C[C@H](NC(=O)[C@H](Cc1ccccc1)NC(=O)c1cnccn1)B(O)O [Bortezomib] | > 100 | 811 ± 243 | 
N[C@@H](C(=O)N[C@@H]1C(=O)N2C(C(=O)O)=C(Cl)CS[C@H]12)c1ccccc1 [Cefaclor] | > 100 | 1890 ± 257 | 
COCc1c(C(C)C)nc(C(C)C)c(/C=C/[C@@H](O)C[C@@H](O)CC(=O)O)c1-c1ccc(F)cc1 [Cerivastatin] |  |  | NTCP inhibitor or non-inhibitor (human NTCP; inhibitor = Ki less than 300 μM): NTCP inhibitors
CN(C)CCCN1c2ccccc2Sc2ccc(Cl)cc21 [Chlorpromazine] | 767 ± 268 | 50.7 ± 5.9 | fold more potent ASBT inhibition than NTCP inhibition (human ASBT): ≥ 10 fold; taurocholate uptake into ASBT-MDCK cells, percent of control (human ASBT): below 50%
COc1cccc2c1C(=O)c1c(O)c3c(c(O)c1C2=O)C[C@@](O)(C(C)=O)C[C@@H]3O[C@H]1C[C@H](N)[C@H](O)[C@H](C)O1 [Daunorubicin] | > 100 | > 100 | 
CCCCOc1cc(C(=O)NCCN(CC)CC)c2ccccc2n1 [Dibucaine] | > 100 | 85.8 ± 2.3 | fold more potent ASBT inhibition than NTCP inhibition (human ASBT): ≥ 10 fold
CCOC(=O)C1=C(C)NC(C)=C(C(=O)OC)C1c1cccc([N+](=O)[O-])c1 (stereo not drawn) [Nitrendipine] |  | 31.7 ± 6.5 | 
O=C(c1ccc(OCCN2CCCCC2)cc1)c1c(-c2ccc(O)cc2)sc2cc(O)ccc12 [Raloxifene HCl] |  | 65.8 ± 9.2 | 
CC(C)c1nc(CN(C)C(=O)N[C@H](C(=O)N[C@@H](Cc2ccccc2)C[C@H](O)[C@H](Cc2ccccc2)NC(=O)OCc2cncs2)C(C)C)cs1 [Ritonavir] |  | 47.3 ± 9.7 | taurocholate uptake into ASBT-MDCK cells, percent of control (human ASBT): below 50%
Clc1ccc(C(Cn2ccnc2)OCc2ccsc2Cl)c(Cl)c1 (stereo not drawn) [Tioconazole] |  | 11.9 ± 2.7 | ASBT inhibitor or non-inhibitor (human ASBT): ASBT inhibitors; taurocholate uptake into ASBT-MDCK cells, percent of control (human ASBT): below 50%

The next lines start with results.

potency estimated from few doses (human NTCP) [µM] | potency estimated from few doses (human ASBT) [µM] | Compound | other results
1290 | 1460 | Nc1nc(NC2CC2)c2ncn([C@H]3C=C[C@@H](CO)C3)c2n1 [Abacavir] | 
> 100 | 1420 | C[C@H]1[C@H](NC(=O)/C(=N\OC(C)(C)C(=O)O)c2csc(N)n2)C(=O)N1S(=O)(=O)O [Aztreonam] | 
 | 168 ± 10 | NS(=O)(=O)c1cc2c(cc1C(F)(F)F)NC(Cc1ccccc1)NS2(=O)=O (stereo not drawn) [Bendroflumethiazide] | 
336 ± 101 |  | CCN(CC)CCCC(C)Nc1ccnc2cc(Cl)ccc12 (stereo not drawn) [Chloroquine] | 
332 ± 73 | 208 ± 51 | CN/C(=N/CCSCc1nc[nH]c1C)NC#N [Cimetidine] | 
416 ± 624 | 18.5 ± 3.9 | Clc1ccc(COC(Cn2ccnc2)c2ccc(Cl)cc2Cl)cc1 (stereo not drawn) [Econazole] | fold more potent ASBT inhibition than NTCP inhibition (human ASBT): ≥ 10 fold; ASBT inhibitor or non-inhibitor (human ASBT): ASBT inhibitors; taurocholate uptake into ASBT-MDCK cells, percent of control (human ASBT): below 50%
 | 139 ± 58 | CCCCc1nc(Cl)c(CO)n1Cc1ccc(-c2ccccc2-c2nn[nH]n2)cc1 [Losartan] | 
 | 30.9 ± 1.7 | COCCOC(=O)C1=C(C)NC(C)=C(C(=O)OC(C)C)C1c1cccc([N+](=O)[O-])c1 (stereo not drawn) [Nimodipine] | taurocholate uptake into ASBT-MDCK cells, percent of control (human ASBT): below 50%
 | 1050 ± 422 | CCCc1nc(C(C)(C)O)c(C(=O)O)n1Cc1ccc(-c2ccccc2-c2nnn[nH]2)cc1 [Olmesartan] | ASBT inhibitor or non-inhibitor (human ASBT): inhibited NTCP but not ASBT
 | 164 ± 34 | CC(C)c1nc(N(C)S(C)(=O)=O)nc(-c2ccc(F)cc2)c1/C=C/[C@@H](O)C[C@@H](O)CC(=O)O [Rosuvastatin] | 
